# Measured values: publication PMC7385619, “A triple action CDK4/6-PI3K-BET inhibitor with augmented cancer cell cytotoxicity” (Cell Discovery, 2020)
# Tests used:
# Test in all cases: KINOMEscan assay (Eurofins DiscoverX)
# Assay type in all cases: binding
# kinome (kinase panel) [1] = biological target: T1, kinome (kinase panel) (Plasmodium falciparum, UniProt P61075); conditions: PFPK5(P.falciparum) (Entrez MAL13P1.279); 1000 nM; read-out: Percent Control
# T1 construct: purchased Eurofins DiscoverX
# kinome (kinase panel) [2] = biological target: T2, kinome (kinase panel) (Homo sapiens, UniProt Q13164); conditions: ERK5 (Entrez MAPK7); 1000 nM; read-out: Percent Control
# T2 construct: purchased Eurofins DiscoverX
# kinome (kinase panel) [3] = biological target: T3, kinome (kinase panel) (Homo sapiens, UniProt Q9HC98); conditions: NEK6; 1000 nM; read-out: Percent Control
# T3 construct: purchased Eurofins DiscoverX
# kinome (kinase panel) [4] = biological target: T4, kinome (kinase panel) (Homo sapiens, UniProt Q9NSY1); conditions: BIKE (Entrez BMP2K); 1000 nM; read-out: Percent Control
# T4 construct: purchased Eurofins DiscoverX
# kinome (kinase panel) [5] = biological target: T5, kinome (kinase panel) (Homo sapiens, UniProt P42336, H1047Y); conditions: read-out: Percent Control
# T5 construct: purchased Eurofins DiscoverX
# kinome (kinase panel) [6] = biological target: T6, kinome (kinase panel) (Homo sapiens, UniProt P50613); conditions: CDK7; 1000 nM; read-out: Percent Control
# T6 construct: purchased Eurofins DiscoverX
# kinome (kinase panel) [7] = biological target: T7, kinome (kinase panel) (Homo sapiens, UniProt Q9H422); conditions: HIPK3; 1000 nM; read-out: Percent Control
# T7 construct: purchased Eurofins DiscoverX
# kinome (kinase panel) [8] = biological target: T8, kinome (kinase panel) (Homo sapiens, UniProt P31751); conditions: AKT2; 1000 nM; read-out: Percent Control
# T8 construct: purchased Eurofins DiscoverX
# kinome (kinase panel) [9] = biological target: T9, kinome (kinase panel) (Homo sapiens, UniProt Q00537); conditions: PCTK2 (Entrez CDK17); 1000 nM; read-out: Percent Control
# T9 construct: purchased Eurofins DiscoverX
# kinome (kinase panel) [10] = biological target: T10, kinome (kinase panel) (Homo sapiens, UniProt P21709); conditions: EPHA1; 1000 nM; read-out: Percent Control
# T10 construct: purchased Eurofins DiscoverX
# kinome (kinase panel) [11] = biological target: T11, kinome (kinase panel) (Homo sapiens, UniProt Q13163); conditions: MEK5 (Entrez MAP2K5); 1000 nM; read-out: Percent Control
# T11 construct: purchased Eurofins DiscoverX
# kinome (kinase panel) [12] = biological target: T12, kinome (kinase panel) (Homo sapiens, UniProt Q99755); conditions: PIP5K1A; 1000 nM; read-out: Percent Control
# T12 construct: purchased Eurofins DiscoverX
# kinome (kinase panel) [13] = biological target: T13, kinome (kinase panel) (Homo sapiens, UniProt P00533, G719C); conditions: […]; 1000 nM; read-out: Percent Control
# T13 construct: purchased Eurofins DiscoverX
# kinome (kinase panel) [14] = biological target: T14, kinome (kinase panel) (Homo sapiens, UniProt P21802); conditions: FGFR2; 1000 nM; read-out: Percent Control
# T14 construct: purchased Eurofins DiscoverX
# kinome (kinase panel) [15] = biological target: T15, kinome (kinase panel) (Homo sapiens, UniProt Q9P0L2); conditions: MARK1; 1000 nM; read-out: Percent Control
# T15 construct: purchased Eurofins DiscoverX
# kinome (kinase panel) [16] = biological target: T16, kinome (kinase panel) (Homo sapiens, UniProt Q8IVH8); conditions: MAP4K3; 1000 nM; read-out: Percent Control
# T16 construct: purchased Eurofins DiscoverX
# kinome (kinase panel) [17] = biological target: T17, kinome (kinase panel) (Homo sapiens, UniProt P16591); conditions: FER; 1000 nM; read-out: Percent Control
# T17 construct: purchased Eurofins DiscoverX
# kinome (kinase panel) [18] = biological target: T18, kinome (kinase panel) (Homo sapiens, UniProt Q9UM73); conditions: ALK; 1000 nM; read-out: Percent Control
# T18 construct: purchased Eurofins DiscoverX
# kinome (kinase panel) [19] = biological target: T19, kinome (kinase panel) (Homo sapiens, UniProt P42336, E545A); conditions: read-out: Percent Control
# T19 construct: purchased Eurofins DiscoverX
# kinome (kinase panel) [20] = biological target: T20, kinome (kinase panel) (Homo sapiens, UniProt Q9UIK4); conditions: DAPK2; 1000 nM; read-out: Percent Control
# T20 construct: purchased Eurofins DiscoverX
# kinome (kinase panel) [21] = biological target: T21, kinome (kinase panel) (Homo sapiens, UniProt Q6XUX3); conditions: RIPK5 (DSTYK); 1000 nM; read-out: Percent Control
# T21 construct: purchased Eurofins DiscoverX
# kinome (kinase panel) [22] = biological target: T22, kinome (kinase panel) (Homo sapiens, UniProt P28482); conditions: ERK2 (Entrez MAPK1); 1000 nM; read-out: Percent Control
# T22 construct: purchased Eurofins DiscoverX
# kinome (kinase panel) [23] = biological target: T23, kinome (kinase panel) (Homo sapiens, UniProt Q96L34); conditions: MARK4; 1000 nM; read-out: Percent Control
# T23 construct: purchased Eurofins DiscoverX
# kinome (kinase panel) [24] = biological target: T24, kinome (kinase panel) (Homo sapiens, UniProt Q16288); conditions: TRKC (NTRK3); 1000 nM; read-out: Percent Control
# T24 construct: purchased Eurofins DiscoverX
# kinome (kinase panel) [25] = biological target: T25, kinome (kinase panel) (Homo sapiens, UniProt Q15759); conditions: p38-beta (Entrez MAPK11); 1000 nM; read-out: Percent Control
# T25 construct: purchased Eurofins DiscoverX
# kinome (kinase panel) [26] = biological target: T26, kinome (kinase panel) (Homo sapiens, UniProt Q15569); conditions: TESK1; 1000 nM; read-out: Percent Control
# T26 construct: purchased Eurofins DiscoverX
# kinome (kinase panel) [27] = biological target: T27, kinome (kinase panel) (Homo sapiens, UniProt P37023); conditions: ACVRL1; 1000 nM; read-out: Percent Control
# T27 construct: purchased Eurofins DiscoverX
# kinome (kinase panel) [28] = biological target: T28, kinome (kinase panel) (Homo sapiens, UniProt Q09013); conditions: DMPK; 1000 nM; read-out: Percent Control
# T28 construct: purchased Eurofins DiscoverX
# kinome (kinase panel) [29] = biological target: T29, kinome (kinase panel) (Homo sapiens, UniProt O15146); conditions: MUSK; 1000 nM; read-out: Percent Control
# T29 construct: purchased Eurofins DiscoverX
# kinome (kinase panel) [30] = biological target: T30, kinome (kinase panel) (Homo sapiens, UniProt P07949, M918T); conditions: read-out: Percent Control
# T30 construct: purchased Eurofins DiscoverX
# kinome (kinase panel) [31] = biological target: T31, kinome (kinase panel) (Homo sapiens, UniProt Q9H2K8); conditions: TAOK3; 1000 nM; read-out: Percent Control
# T31 construct: purchased Eurofins DiscoverX
# kinome (kinase panel) [32] = biological target: T32, kinome (kinase panel) (Homo sapiens, UniProt P57078); conditions: RIPK4; 1000 nM; read-out: Percent Control
# T32 construct: purchased Eurofins DiscoverX
# kinome (kinase panel) [33] = biological target: T33, kinome (kinase panel) (Homo sapiens, UniProt Q05655); conditions: PRKCD; 1000 nM; read-out: Percent Control
# T33 construct: purchased Eurofins DiscoverX
# T33 sequence (Q05655 whole entry): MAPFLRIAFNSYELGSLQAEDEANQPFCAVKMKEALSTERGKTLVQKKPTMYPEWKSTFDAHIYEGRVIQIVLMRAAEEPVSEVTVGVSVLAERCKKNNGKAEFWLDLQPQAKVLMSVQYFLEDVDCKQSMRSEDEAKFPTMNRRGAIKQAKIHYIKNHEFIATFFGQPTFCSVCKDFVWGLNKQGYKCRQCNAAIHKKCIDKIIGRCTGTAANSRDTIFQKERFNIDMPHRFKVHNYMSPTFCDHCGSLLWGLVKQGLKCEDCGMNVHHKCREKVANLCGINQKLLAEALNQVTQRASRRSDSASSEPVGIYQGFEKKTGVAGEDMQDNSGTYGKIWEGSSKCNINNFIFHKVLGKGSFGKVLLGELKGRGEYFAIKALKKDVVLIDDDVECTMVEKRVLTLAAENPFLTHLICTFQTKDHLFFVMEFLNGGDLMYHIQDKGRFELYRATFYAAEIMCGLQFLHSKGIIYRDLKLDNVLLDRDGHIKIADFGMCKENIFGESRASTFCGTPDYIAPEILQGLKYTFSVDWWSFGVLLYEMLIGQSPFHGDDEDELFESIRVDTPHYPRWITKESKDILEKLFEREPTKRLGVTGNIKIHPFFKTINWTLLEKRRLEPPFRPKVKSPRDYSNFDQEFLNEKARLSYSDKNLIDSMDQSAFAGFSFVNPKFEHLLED
# T12 sequence (Q99755 whole entry): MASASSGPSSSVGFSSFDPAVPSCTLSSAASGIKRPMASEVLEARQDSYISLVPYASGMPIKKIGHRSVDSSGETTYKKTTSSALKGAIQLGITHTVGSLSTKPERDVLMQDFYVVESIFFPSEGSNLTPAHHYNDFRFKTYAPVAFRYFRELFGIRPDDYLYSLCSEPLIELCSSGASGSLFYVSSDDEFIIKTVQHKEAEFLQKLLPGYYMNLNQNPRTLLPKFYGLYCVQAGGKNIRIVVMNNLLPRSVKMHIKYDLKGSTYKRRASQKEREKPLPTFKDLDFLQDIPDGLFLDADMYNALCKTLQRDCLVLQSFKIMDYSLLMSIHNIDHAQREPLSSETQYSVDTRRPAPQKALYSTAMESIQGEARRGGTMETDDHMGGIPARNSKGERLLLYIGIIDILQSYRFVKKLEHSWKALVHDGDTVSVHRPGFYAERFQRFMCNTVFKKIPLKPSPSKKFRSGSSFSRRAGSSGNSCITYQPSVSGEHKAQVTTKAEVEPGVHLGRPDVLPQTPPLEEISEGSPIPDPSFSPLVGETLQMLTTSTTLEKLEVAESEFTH
# T30 sequence (P07949 29-1114 M918T): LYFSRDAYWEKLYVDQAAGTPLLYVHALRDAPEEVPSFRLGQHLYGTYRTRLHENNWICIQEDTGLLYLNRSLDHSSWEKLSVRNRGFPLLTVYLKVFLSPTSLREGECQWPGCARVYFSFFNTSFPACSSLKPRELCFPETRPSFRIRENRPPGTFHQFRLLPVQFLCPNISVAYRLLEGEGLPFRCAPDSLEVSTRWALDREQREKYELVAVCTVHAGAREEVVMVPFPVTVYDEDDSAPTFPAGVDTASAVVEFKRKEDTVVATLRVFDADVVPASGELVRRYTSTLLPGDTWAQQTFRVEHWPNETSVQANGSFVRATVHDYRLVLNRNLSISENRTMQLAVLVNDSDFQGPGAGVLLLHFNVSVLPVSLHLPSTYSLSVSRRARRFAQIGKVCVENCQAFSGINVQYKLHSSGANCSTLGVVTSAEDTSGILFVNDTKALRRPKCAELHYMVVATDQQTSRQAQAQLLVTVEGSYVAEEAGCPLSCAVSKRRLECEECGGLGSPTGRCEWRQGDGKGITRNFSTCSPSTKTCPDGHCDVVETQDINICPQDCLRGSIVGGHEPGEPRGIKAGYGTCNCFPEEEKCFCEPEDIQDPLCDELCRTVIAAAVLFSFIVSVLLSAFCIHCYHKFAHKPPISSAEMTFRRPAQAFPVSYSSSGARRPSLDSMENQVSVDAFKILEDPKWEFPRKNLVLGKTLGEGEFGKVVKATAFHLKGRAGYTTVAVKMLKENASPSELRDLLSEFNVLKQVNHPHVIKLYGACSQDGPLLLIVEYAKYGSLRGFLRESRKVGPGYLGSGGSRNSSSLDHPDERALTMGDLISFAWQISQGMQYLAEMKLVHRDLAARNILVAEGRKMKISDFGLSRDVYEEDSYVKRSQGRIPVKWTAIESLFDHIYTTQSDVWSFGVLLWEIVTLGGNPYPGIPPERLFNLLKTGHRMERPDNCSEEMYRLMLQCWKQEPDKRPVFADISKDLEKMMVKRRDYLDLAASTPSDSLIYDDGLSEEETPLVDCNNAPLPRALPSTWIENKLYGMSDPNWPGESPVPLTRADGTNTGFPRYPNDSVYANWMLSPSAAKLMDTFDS
# T28 sequence (Q09013 whole entry): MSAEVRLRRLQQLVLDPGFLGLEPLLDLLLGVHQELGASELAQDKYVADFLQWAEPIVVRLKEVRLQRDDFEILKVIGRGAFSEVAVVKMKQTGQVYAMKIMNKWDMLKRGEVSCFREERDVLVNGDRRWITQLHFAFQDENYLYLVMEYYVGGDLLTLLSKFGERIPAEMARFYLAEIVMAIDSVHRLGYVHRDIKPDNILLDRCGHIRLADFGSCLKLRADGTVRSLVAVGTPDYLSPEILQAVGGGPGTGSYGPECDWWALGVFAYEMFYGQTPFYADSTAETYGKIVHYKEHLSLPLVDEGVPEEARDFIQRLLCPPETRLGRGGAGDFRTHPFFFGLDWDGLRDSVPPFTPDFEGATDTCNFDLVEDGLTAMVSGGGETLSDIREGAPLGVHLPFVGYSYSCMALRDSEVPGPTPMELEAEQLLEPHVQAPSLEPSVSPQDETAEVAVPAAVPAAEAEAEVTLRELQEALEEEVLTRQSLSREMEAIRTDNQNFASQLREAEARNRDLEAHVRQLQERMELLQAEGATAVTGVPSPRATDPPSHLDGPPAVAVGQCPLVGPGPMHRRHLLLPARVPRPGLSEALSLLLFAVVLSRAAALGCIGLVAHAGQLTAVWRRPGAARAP
# T32 sequence (P57078 whole entry): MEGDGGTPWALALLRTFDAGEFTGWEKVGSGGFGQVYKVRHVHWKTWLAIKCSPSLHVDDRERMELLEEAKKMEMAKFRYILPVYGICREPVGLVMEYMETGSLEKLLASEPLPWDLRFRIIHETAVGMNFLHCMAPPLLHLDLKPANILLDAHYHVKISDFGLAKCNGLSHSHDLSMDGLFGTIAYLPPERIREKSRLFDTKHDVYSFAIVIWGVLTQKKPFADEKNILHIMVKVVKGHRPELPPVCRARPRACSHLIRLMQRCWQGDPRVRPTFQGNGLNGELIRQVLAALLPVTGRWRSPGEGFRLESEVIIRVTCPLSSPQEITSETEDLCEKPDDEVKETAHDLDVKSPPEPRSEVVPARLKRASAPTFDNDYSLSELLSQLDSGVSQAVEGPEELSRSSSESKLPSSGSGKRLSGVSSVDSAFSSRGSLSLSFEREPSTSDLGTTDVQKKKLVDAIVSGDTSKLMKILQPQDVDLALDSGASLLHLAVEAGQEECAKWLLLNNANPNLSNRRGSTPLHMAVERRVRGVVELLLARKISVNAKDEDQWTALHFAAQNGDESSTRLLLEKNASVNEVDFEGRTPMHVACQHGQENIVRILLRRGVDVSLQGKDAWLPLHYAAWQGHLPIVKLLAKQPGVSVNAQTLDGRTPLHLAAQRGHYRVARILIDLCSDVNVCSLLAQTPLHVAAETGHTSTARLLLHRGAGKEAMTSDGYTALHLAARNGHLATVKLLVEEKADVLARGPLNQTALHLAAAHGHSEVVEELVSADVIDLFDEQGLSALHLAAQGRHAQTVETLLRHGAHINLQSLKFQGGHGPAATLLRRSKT
# T3 sequence (Q9HC98 whole entry): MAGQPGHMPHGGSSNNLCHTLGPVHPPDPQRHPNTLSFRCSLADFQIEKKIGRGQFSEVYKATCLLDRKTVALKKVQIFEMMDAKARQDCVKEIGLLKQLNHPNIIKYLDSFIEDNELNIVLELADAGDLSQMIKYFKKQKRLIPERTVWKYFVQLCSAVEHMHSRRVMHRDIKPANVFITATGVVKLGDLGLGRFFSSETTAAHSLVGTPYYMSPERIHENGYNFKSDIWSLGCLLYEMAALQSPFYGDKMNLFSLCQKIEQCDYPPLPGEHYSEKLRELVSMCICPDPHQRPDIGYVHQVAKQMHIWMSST
# T11 sequence (Q13163 whole entry): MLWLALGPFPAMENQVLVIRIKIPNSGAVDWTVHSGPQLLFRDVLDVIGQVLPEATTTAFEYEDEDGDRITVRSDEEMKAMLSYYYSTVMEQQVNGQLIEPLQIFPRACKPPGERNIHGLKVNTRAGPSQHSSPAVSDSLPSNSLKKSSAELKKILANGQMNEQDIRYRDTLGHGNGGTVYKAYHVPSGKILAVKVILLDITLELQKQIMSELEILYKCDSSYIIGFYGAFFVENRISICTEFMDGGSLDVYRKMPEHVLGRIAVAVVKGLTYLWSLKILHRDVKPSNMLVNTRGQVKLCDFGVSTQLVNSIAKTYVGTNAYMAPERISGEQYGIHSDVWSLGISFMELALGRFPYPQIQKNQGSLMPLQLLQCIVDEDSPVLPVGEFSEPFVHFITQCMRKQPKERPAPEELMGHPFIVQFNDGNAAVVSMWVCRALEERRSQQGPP
# T27 sequence (P37023 22-503): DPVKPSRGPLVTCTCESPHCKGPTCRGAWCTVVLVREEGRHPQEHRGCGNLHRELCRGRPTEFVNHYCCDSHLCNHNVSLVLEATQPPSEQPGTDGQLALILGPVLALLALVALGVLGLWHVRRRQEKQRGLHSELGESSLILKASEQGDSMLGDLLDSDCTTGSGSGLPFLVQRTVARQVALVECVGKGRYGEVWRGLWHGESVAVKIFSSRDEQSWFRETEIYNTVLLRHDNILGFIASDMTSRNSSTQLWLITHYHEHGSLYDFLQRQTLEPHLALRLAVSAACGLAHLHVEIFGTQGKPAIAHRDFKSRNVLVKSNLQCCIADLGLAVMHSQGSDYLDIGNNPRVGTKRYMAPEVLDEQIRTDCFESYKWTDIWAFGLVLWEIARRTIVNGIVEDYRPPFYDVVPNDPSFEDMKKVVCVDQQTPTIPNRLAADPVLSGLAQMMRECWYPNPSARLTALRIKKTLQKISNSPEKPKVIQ
structure (smiles),measurement,setting,value
CN(C)C(=O)c1cc2cnc(Nc3ccc(-c4csc5c(=O)cc(N6CCOCC6)oc45)cc3)nc2n1C1CCCC1 [SRX3177],remaining binding at 1 µM,kinome (kinase panel) [1],96%
same,remaining binding at 1 µM,kinome (kinase panel) [2],96%
same,remaining binding at 1 µM,kinome (kinase panel) [3],100%
same,remaining binding at 1 µM,kinome (kinase panel) [4],10%
same,remaining binding at 1 µM,kinome (kinase panel) [5],34%
same,remaining binding at 1 µM,kinome (kinase panel) [6],90%
same,remaining binding at 1 µM,kinome (kinase panel) [7],77%
same,remaining binding at 1 µM,kinome (kinase panel) [8],98%
same,remaining binding at 1 µM,kinome (kinase panel) [9],55%
same,remaining binding at 1 µM,kinome (kinase panel) [10],79%
same,remaining binding at 1 µM,kinome (kinase panel) [11],12%
same,remaining binding at 1 µM,kinome (kinase panel) [12],21%
same,remaining binding at 1 µM,kinome (kinase panel) [13],79%
same,remaining binding at 1 µM,kinome (kinase panel) [14],86%
same,remaining binding at 1 µM,kinome (kinase panel) [15],100%
same,remaining binding at 1 µM,kinome (kinase panel) [16],100%
same,remaining binding at 1 µM,kinome (kinase panel) [17],92%
same,remaining binding at 1 µM,kinome (kinase panel) [18],66%
same,remaining binding at 1 µM,kinome (kinase panel) [19],82%
same,remaining binding at 1 µM,kinome (kinase panel) [20],89%
same,remaining binding at 1 µM,kinome (kinase panel) [21],87%
same,remaining binding at 1 µM,kinome (kinase panel) [22],100%
same,remaining binding at 1 µM,kinome (kinase panel) [23],100%
same,remaining binding at 1 µM,kinome (kinase panel) [24],37%
same,remaining binding at 1 µM,kinome (kinase panel) [25],100%
same,remaining binding at 1 µM,kinome (kinase panel) [26],87%
same,remaining binding at 1 µM,kinome (kinase panel) [27],100%
same,remaining binding at 1 µM,kinome (kinase panel) [28],100%
same,remaining binding at 1 µM,kinome (kinase panel) [29],95%
same,remaining binding at 1 µM,kinome (kinase panel) [30],100%
same,remaining binding at 1 µM,kinome (kinase panel) [31],2.5%
same,remaining binding at 1 µM,kinome (kinase panel) [32],58%
same,remaining binding at 1 µM,kinome (kinase panel) [33],86%
